# Source: patent US8299073B2, “P38 MAP kinase inhibitors” (Respivert Ltd., priority 2008, dated 2012)
# Read-outs that look alike come from different tables or passages of the source.
# Experiments:
# [1] = test system: Differentiated U937 cells; assay: MTT assay (loss of cell viability); assay type: cell-based, human; settings: for MTT 4 hr / MTT 24 hr: loss of cell viability, 10 ug/ml
# [2] = molecular target: T1, recombinant, phosphorylated p38 MAPK gamma (MAPK12:Millipore) (Homo sapiens, UniProt P53778); assay: Enzyme inhibition assay (FRET, Z-LYTE), p38 MAPK gamma; assay type: biochemical; settings: read-out: IC50 values P38γ enzyme
# T1 construct: purchased Millipore
# T1 sequence (P53778 1-367): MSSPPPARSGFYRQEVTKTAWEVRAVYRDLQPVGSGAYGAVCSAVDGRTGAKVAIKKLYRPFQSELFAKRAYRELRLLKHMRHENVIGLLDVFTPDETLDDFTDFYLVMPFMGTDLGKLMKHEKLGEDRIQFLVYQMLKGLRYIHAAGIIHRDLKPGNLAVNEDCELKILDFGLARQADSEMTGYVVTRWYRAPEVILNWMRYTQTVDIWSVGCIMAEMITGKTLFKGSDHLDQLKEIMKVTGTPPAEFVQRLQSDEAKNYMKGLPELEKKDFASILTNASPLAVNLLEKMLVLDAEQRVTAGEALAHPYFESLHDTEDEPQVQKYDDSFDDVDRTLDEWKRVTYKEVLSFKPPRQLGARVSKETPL
# [3] = test system: LPS-induced TNFα release in THP-1 cells; assay: LPS-induced TNF alpha release in THP-1 cells; assay type: cell-based; settings: Homo sapiens
# [4] = test system: LPS-induced TNFα release in differentiated U937 cells; assay: LPS-induced TNF alpha release in differentiated U937 cells; assay type: cell-based
# [5] = molecular target: T2, p38 MAPK alpha (MAPK14: Invitrogen) (Homo sapiens, UniProt Q16539); assay: Enzyme inhibition assay (FRET, Z-LYTE), p38 MAPK alpha, via activation of MAPKAP-K2; assay type: biochemical; settings: read-out: IC50 values p38α enzyme
# T2 construct: purchased Invitrogen
# [6] = THP-1, LPS-induced TNFα release, read-out: IC50 values THP-1 cells
# [7] = Homo sapiens; read-out: R-EC50 values d-U937 cells
# [8] = THP-1, read-out: IC50 values THP-1 cells
# [9] = Homo sapiens, read-out: R-EC50 values d-U937 cells
# T2 sequence (Q16539 whole entry): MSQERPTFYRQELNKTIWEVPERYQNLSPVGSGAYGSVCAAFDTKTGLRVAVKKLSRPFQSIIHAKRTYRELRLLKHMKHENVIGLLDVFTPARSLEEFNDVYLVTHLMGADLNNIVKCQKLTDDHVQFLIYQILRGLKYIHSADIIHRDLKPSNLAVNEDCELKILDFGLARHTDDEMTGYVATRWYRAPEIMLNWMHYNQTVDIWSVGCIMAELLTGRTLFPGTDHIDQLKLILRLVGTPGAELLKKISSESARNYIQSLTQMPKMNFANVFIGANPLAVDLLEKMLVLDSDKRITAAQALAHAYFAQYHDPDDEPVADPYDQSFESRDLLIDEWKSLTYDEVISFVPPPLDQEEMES
IC50 [2],"IC50 [3, 6]","EC50 [4, 7]",IC50 [5],Structure (SMILES),"Differentiated U937 cells MTT Assay ([1]; 4, 24 h (10 μg/ml))",MTT 4 hr [1],MTT 24 hr [1],"IC50 [3, 8]","EC50 [4, 9]"
–,–,–,–,"COCC(=O)Nc1cc(COc2ccc(NC(=O)Nc3cc(C(C)(C)C)nn3-c3ccc(C)cc3)c3ccccc23)ccn1 [Example 1, N-(4-((4-(3-(3-tert-Butyl-1-p-tolyl-1H-pyrazol-5-yl)ureido)naphthalen-1-yloxy)methyl)pyridin-2-yl)-2-methoxyacetamide]",Negative^2,− (− <30%),− (− <30%),–,–
< 0.5 µM,< 0.5 µM,< 0.5 µM,–,"CNC(=O)Nc1cc(COc2ccc(NC(=O)Nc3cc(C(C)(C)C)nn3-c3ccc(C)cc3)c3ccccc23)ccn1 [Example 2, Methyl 4-((4-(3-(3-tert-butyl-1-p-tolyl-1H-pyrazol-5-yl)ureido)naphthalen-1-yloxy)methyl)pyridin-2-ylurea]",–,− (− <30%),− (− <30%),–,–
< 0.5 µM,< 0.01 µM,< 0.01 µM,< 0.01 µM,"Cc1ccc(-n2nc(C(C)(C)C)cc2NC(=O)Nc2ccc(OCc3ccnc(NC(=O)C4CCOCC4)c3)c3ccccc23)cc1 [Example 3, N-(4-((4-(3-(3-tert-Butyl-1-p-tolyl-1H-pyrazol-5-yl)ureido)naphthalen-1-yloxy)methyl)pyridin-2-yl)tetrahydro-2H-pyran-4-carboxamide]",–,− (− <30%),+ (+ >30% at 10 ug/ml),–,–
< 0.5 µM,< 0.01 µM,< 0.01 µM,< 0.5 µM,"CO[C@@H](C)C(=O)Nc1cc(COc2ccc(NC(=O)Nc3cc(C(C)(C)C)nn3-c3ccc(C)cc3)c3ccccc23)ccn1 [Example 4, (S)-N-(4-((4-(3-(3-tert-Butyl-1-p-tolyl-1H-pyrazol-5-yl)ureido)naphthalen-1-yloxy)methyl)pyridin-2-yl)-2-methoxypropanamide]",–,− (− <30%),− (− <30%),–,–
< 5 µM,< 0.01 µM,< 0.01 µM,< 0.01 µM,"CO[C@H](C)C(=O)Nc1cc(COc2ccc(NC(=O)Nc3cc(C(C)(C)C)nn3-c3ccc(C)cc3)c3ccccc23)ccn1 [Example 5, (R)-N-(4-((4-(3-(3-tert-Butyl-1-p-tolyl-1H-pyrazol-5-yl)ureido)naphthalen-1-yloxy)methyl)pyridin-2-yl)-2-methoxypropanamide]",–,− (− <30%),+ (+ >30% at 10 ug/ml),–,–
< 0.5 µM,< 0.01 µM,< 0.01 µM,< 0.01 µM,"Cc1ccc(-n2nc(C(C)(C)C)cc2NC(=O)Nc2ccc(OCc3ccnc(NC(=O)CO)c3)c3ccccc23)cc1 [Example 7, N-(4-((4-(3-(3-tert-Butyl-1-p-tolyl-1H-pyrazol-5-yl)ureido)naphthalen-1-yloxy)methyl)pyridin-2-yl)-2-hydroxyacetamide]",–,− (− <30%),+ (+ >30% at 10 ug/ml),–,–
< 5 µM,< 0.01 µM,< 0.01 µM,< 0.5 µM,"CNC(C)(C)C(=O)Nc1cc(COc2ccc(NC(=O)Nc3cc(C(C)(C)C)nn3-c3ccc(C)cc3)c3ccccc23)ccn1 [Example 8, N-(4-((4-(3-(3-tert-Butyl-1-p-tolyl-1H-pyrazol-5-yl)ureido)naphthalen-1-yloxy)methyl)pyridin-2-yl)-2-methyl-2-(methylamino)propanamide]",–,− (− <30%),+ (+ >30% at 10 ug/ml),–,–
< 0.5 µM,< 0.01 µM,< 0.01 µM,< 0.01 µM,"CN[C@@H](C)C(=O)Nc1cc(COc2ccc(NC(=O)Nc3cc(C(C)(C)C)nn3-c3ccc(C)cc3)c3ccccc23)ccn1 [Example 9, (S)-N-(4-((4-(3-(3-tert-Butyl-1-p-tolyl-1H-pyrazol-5-yl)ureido)naphthalen-1-yloxy)methyl)pyridin-2-yl)-2-(methylamino)propanamide]",–,− (− <30%),+ (+ >30% at 10 ug/ml),–,–
< 5 µM,< 0.01 µM,< 0.01 µM,< 0.5 µM,"Cc1ccc(-n2nc(C(C)(C)C)cc2NC(=O)Nc2ccc(OCc3ccnc(NC(=O)[C@H]4COCCN4)c3)c3ccccc23)cc1 [Example 10, (R)-N-(4-((4-(3-(3-tert-Butyl-1-p-tolyl-1H-pyrazol-5-yl)ureido)naphthalen-1-yloxy)methyl)pyridin-2-yl)morpholine-3-carboxamide]",–,− (− <30%),− (− <30%),–,–
< 5 µM,< 0.01 µM,< 0.01 µM,< 0.01 µM,"Cc1ccc(-n2nc(C(C)(C)C)cc2NC(=O)Nc2ccc(OCc3ccnc(NC(=O)[C@@H]4COCCN4)c3)c3ccccc23)cc1 [Example 11, (S)-N-(4-((4-(3-(3-tert-Butyl-1-p-tolyl-1H-pyrazol-5-yl)ureido)naphthalen-1-yloxy)methyl)pyridin-2-yl)morpholine-3-carboxamide]",–,− (− <30%),− (− <30%),–,–
< 0.5 µM,< 0.5 µM,< 0.01 µM,< 0.01 µM,"Cc1ccc(-n2nc(C(C)(C)C)cc2NC(=O)Nc2ccc(OCc3ccnc(NC(=O)N4CCOCC4)c3)c3ccccc23)cc1 [Example 13, N-(4-((4-(3-(3-tert-Butyl-1-p-tolyl-1H-pyrazol-5-yl)ureido)naphthalen-1-yloxy)methyl)pyridin-2-yl)morpholine-4-carboxamide]",–,− (− <30%),− (− <30%),–,–
< 0.5 µM,< 0.01 µM,< 0.5 µM,–,"COCCNC(=O)CNC(=O)Nc1cc(COc2ccc(NC(=O)Nc3cc(C(C)(C)C)nn3-c3ccc(C)cc3)c3ccccc23)ccn1 [Example 15, 2-(3-(4-((4-(3-(3-tert-Butyl-1-p-tolyl-1H-pyrazol-5-yl)ureido)naphthalen-1-yloxy)methyl)pyridin-2-yl)ureido)-N-(2-methoxyethyl)acetamide]",–,− (− <30%),− (− <30%),–,–
< 0.5 µM,< 0.01 µM,< 0.01 µM,–,"COCCNCC(=O)Nc1cc(COc2ccc(NC(=O)Nc3cc(C(C)(C)C)nn3-c3ccc(C)cc3)c3ccccc23)ccn1 [Example 25, N-(4-((4-(3-(3-tert-Butyl-1-p-tolyl-1H-pyrazol-5-yl)ureido)naphthalen-1-yloxy)methyl)pyridin-2-yl)-2-(2-methoxyethylamino)acetamide]",–,− (− <30%),− (− <30%),–,–
< 5 µM,< 0.5 µM,< 0.5 µM,–,"CNC(=O)Nc1cnccc1COc1ccc(NC(=O)Nc2cc(C(C)(C)C)nn2-c2ccc(C)cc2)c2ccccc12 [Example 34, 1-(4-((3-Methylureidopyridin-4-yl)methoxy)naphthalen-1-yl)-3-(3-tert-butyl-1-p-tolyl-1H-pyrazol-5-yl)urea]",–,+ (+ >30% at 10 ug/ml),− (− <30%),–,–
–,–,–,–,"Cc1ccc(-n2nc(C(C)(C)C)cc2NC(=O)Nc2ccc(Oc3ccnc(NC(=O)CS(C)(=O)=O)c3)c3ccccc23)cc1 [Example 51, N-(4-(4-(3-(3-tert-Butyl-1-p-tolyl-1H-pyrazol-5-yl)ureido)naphthalen-1-yloxy)pyridin-2-yl)-2-(methylsulfonyl)acetamide]",–,− (− <30%),+ (+ >30% at 10 ug/ml),< 0.01 µM,< 0.01 µM

Structure (SMILES),IC50 [2],"IC50 [3, 6]","EC50 [4, 7]",IC50 [5],"Differentiated U937 cells MTT Assay ([1]; 4, 24 h (10 μg/ml))",MTT 4 hr [1],MTT 24 hr [1],"IC50 [3, 8]","EC50 [4, 9]"
"Cc1ccc(-n2nc(C(C)(C)C)cc2NC(=O)Nc2ccc(OCc3ccnc(NC(=O)N4CCN(C)CC4)c3)c3ccccc23)cc1 [Example 12, N-(4-((4-(3-(3-tert-Butyl-1-p-tolyl-1H-pyrazol-5-yl)ureido)naphthalen-1-yloxy)methyl)pyridin-2-yl)-4-methylpiperazine-1-carboxamide]",< 0.5 µM,–,–,< 0.01 µM,–,− (− <30%),− (− <30%),< 0.01 µM,< 0.01 µM
"COCC(=O)Nc1cnccc1COc1ccc(NC(=O)Nc2cc(C(C)(C)C)nn2-c2ccc(C)cc2)c2ccccc12 [Example 35, N-(4-((4-(3-(3-tert-Butyl-1-p-tolyl-1H-pyrazol-5-yl)ureido)naphthalen-1-yloxy)methyl)pyridin-3-yl)-2-methoxyacetamide]",> 5 µM,–,–,–,–,− (− <30%),− (− <30%),–,–
"COCCOCC(=O)Nc1cnccc1COc1ccc(NC(=O)Nc2cc(C(C)(C)C)nn2-c2ccc(C)cc2)c2ccccc12 [Example 36, N-(4-((4-(3-(3-tert-Butyl-1-p-tolyl-1H-pyrazol-5-yl)ureido)naphthalen-1-yloxy)methyl)pyridin-3-yl)-2-(2-methoxyethoxy)acetamide]",> 5 µM,–,–,–,–,− (− <30%),− (− <30%),< 0.5 µM,< 0.01 µM
